Where “and” joins values, the source holds several entries; their conditions need not be identical. Equal entries are not always repeated.
System: MRC-5 cells
Assay: Cytotoxicity in MRC-5 cells
Details: for % Effect: CC50 run 30-Apr-2020

## COc1cccc2[nH]c(C(=O)N[C@@H](CC(C)C)C(=O)N[C@@H](C[C@@H]3CCNC3=O)C(=O)CO)cc12 [PF-00835231-00]
0.0316422 uM, minus efflux inhibitor, CC50 run 24-Apr-2020
  % Well Effect: 5.91% and -1.40%
0.100053 uM, minus efflux inhibitor, CC50 run 24-Apr-2020
  % Well Effect: 0.31% and -2.42%
0.316367 uM, minus efflux inhibitor, CC50 run 24-Apr-2020
  % Well Effect: 0.82% and -3.88%
3.16311 uM, minus efflux inhibitor, CC50 run 24-Apr-2020
  % Well Effect: 2.27% and -2.51%
3.16311 uM, plus 0.5 uM efflux inhibitor, CC50 run 22-may-2020
  % Well Effect: 2.26%
3.16311 uM, plus 0.5 uM efflux inhibitor, CC50 run 24-Apr-2020
  % Well Effect: -4.43%
10.0018 uM, minus efflux inhibitor, CC50 run 24-Apr-2020
  % Well Effect: 4.47% and -3.27%
10.0018 uM, plus 0.5 uM efflux inhibitor, CC50 run 22-may-2020
  % Well Effect: 2.88%
10.0018 uM, plus 0.5 uM efflux inhibitor, CC50 run 24-Apr-2020
  % Well Effect: -5.99%
31.6256 uM, minus efflux inhibitor, CC50 run 24-Apr-2020
  % Well Effect: 0.83% and -8.49%
31.6256 uM, plus 0.5 uM efflux inhibitor, CC50 run 22-may-2020
  % Well Effect: 5.31%
31.6256 uM, plus 0.5 uM efflux inhibitor, CC50 run 24-Apr-2020
  % Well Effect: -3.70%
100 uM, minus efflux inhibitor, CC50 run 24-Apr-2020
  % Well Effect: -3.72% and -12.98%
100 uM, plus 0.5 uM efflux inhibitor, CC50 run 22-may-2020
  % Well Effect: -0.43%
100 uM, plus 0.5 uM efflux inhibitor, CC50 run 24-Apr-2020
  % Well Effect: -3.29%
CC50 data, MRC-5 cells, run 22-may-2020, plate GCNS00043792A, [Assay] 0.031642 uM
  % Well Effect: -3.27% and -2.12%
CC50 data, MRC-5 cells, run 22-may-2020, plate GCNS00043792A, [Assay] 0.100053 uM
  % Well Effect: -1.81% and 2.13%
CC50 data, MRC-5 cells, run 22-may-2020, plate GCNS00043792A, [Assay] 0.316367 uM
  % Well Effect: -2.43% and 2.23%
CC50 data, MRC-5 cells, run 22-may-2020, plate GCNS00043792A, [Assay] 1.00035 uM
  % Well Effect: 1.33% and 1.48%
CC50 data, MRC-5 cells, run 22-may-2020, plate GCNS00043792A, [Assay] 3.16311 uM
  % Well Effect: -3.27%
CC50 data, MRC-5 cells, run 22-may-2020, plate GCNS00043792A, [Assay] 10.0018 uM
  % Well Effect: -1.55%
CC50 data, MRC-5 cells, run 22-may-2020, plate GCNS00043792A, [Assay] 31.6256 uM
  % Well Effect: 0.64%
CC50 data, MRC-5 cells, run 22-may-2020, plate GCNS00043792A, [Assay] 100 uM
  % Well Effect: -1.12%
CC50 data, MRC-5 cells, run 24-Apr-2020, plate GCNS00043676A, [Assay] 0.0316422 uM
  % Well Effect: -8.00% and -3.89%
CC50 data, MRC-5 cells, run 24-Apr-2020, plate GCNS00043676A, [Assay] 0.100053 uM
  % Well Effect: -11.58% and -9.10%
CC50 data, MRC-5 cells, run 24-Apr-2020, plate GCNS00043676A, [Assay] 0.316367 uM
  % Well Effect: -6.82% and -8.60%
CC50 data, MRC-5 cells, run 24-Apr-2020, plate GCNS00043676A, [Assay] 1.00035 uM
  % Well Effect: -10.61% and -9.50%
CC50 data, MRC-5 cells, run 24-Apr-2020, plate GCNS00043676A, [Assay] 3.16311 uM
  % Well Effect: -5.78%
CC50 data, MRC-5 cells, run 24-Apr-2020, plate GCNS00043676A, [Assay] 10.0018 uM
  % Well Effect: -3.01%
CC50 data, MRC-5 cells, run 24-Apr-2020, plate GCNS00043676A, [Assay] 31.6256 uM
  % Well Effect: -3.17%
CC50 data, MRC-5 cells, run 24-Apr-2020, plate GCNS00043676A, [Assay] 100 uM
  % Well Effect: 0.84%
Concentration 0.78125, minus efflux inhibitor
  % Effect: -1.26% and -6.59%
Concentration 1.5625, minus efflux inhibitor
  % Effect: -9.86% and -8.48%
Concentration 3.125, minus efflux inhibitor
  % Effect: -3.51% and -6.64%
Concentration 6.25, minus efflux inhibitor
  % Effect: -4.42% and -7.91%
Concentration 12.5, minus efflux inhibitor
  % Effect: -6.72% and -7.11%
Concentration 25, minus efflux inhibitor
  % Effect: -6.44% and -6.96%
Concentration 50, minus efflux inhibitor
  % Effect: -10.88% and -4.85%
Concentration 100, minus efflux inhibitor
  % Effect: -4.27% and -7.38%

Source: article PMC8523698, “Preclinical characterization of an intravenous coronavirus 3CL protease inhibitor for the potential treatment of COVID19” (Nature Communications, 2021)
